Active and inactive are the calls of the source.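 The calls were made as follows: active = response above 60% of the acetylcholine maximum at the M5 muscarinic receptor, read as positive allosteric modulation; inactive = the rest.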
molecular target: Muscarinic acetylcholine receptor M5 (Rattus norvegicus) (UniProt P08911); experiment: potentiation of ACh response at rat M5 – cell-based, rat ortholog, CHO-K1, calcium flux, ACh EC20, selectivity assay for M5 PAM project, dose response (AID 743111); conditions: CHO-K1 rat M5, Fluo-4 calcium flux
Sequence (P08911 whole entry, looked up): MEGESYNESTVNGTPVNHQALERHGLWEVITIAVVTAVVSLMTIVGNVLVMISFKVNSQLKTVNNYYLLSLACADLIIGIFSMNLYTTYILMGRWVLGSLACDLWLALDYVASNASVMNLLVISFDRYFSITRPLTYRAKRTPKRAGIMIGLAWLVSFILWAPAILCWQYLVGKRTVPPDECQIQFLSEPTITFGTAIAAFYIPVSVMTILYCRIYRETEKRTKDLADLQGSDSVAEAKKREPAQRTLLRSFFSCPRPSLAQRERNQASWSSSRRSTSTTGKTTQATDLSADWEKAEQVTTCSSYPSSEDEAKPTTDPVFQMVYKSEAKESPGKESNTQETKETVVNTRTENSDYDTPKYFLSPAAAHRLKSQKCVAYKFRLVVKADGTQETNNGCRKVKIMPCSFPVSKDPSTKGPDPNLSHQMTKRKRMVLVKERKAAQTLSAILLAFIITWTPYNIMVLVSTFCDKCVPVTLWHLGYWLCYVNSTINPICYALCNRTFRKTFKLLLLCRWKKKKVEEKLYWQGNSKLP

Compound	EC50 [nM]
CCN(C(=O)C1CCN(S(=O)(=O)c2ccc(-n3cccn3)cc2)CC1)[C@H](C)c1ccccc1	1200
CCN(C(=O)C1CCN(S(=O)(=O)c2ccc3cn[nH]c3c2)CC1)[C@H](C)c1ccccc1	860
CCN(C(=O)C1CCN(S(=O)(=O)c2ccc(OC)cc2)CC1)[C@H](C)c1ccccc1	1570
CCN(Cc1ccccc1)C(=O)C1CCN(S(=O)(=O)c2ccc3[nH]ncc3c2)CC1	1450
CCN(Cc1ccccc1Cl)C(=O)C1CCN(S(=O)(=O)c2ccc3[nH]ncc3c2)CC1	300
CCN(C(=O)C1CCN(S(=O)(=O)c2ccc3[nH]ncc3c2)CC1)[C@H](C)c1ccccc1	640
CCN(Cc1ccccc1)C(=O)C1CCN(S(=O)(=O)c2ccc3cn[nH]c3c2)CC1	1950

The next lines start with the values.

EC50 [nM]	Compound
320	CCCN(Cc1ccccc1C(F)(F)F)C(=O)C1CCN(S(=O)(=O)c2ccc3[nH]ncc3c2)CC1
540	CCN(Cc1ccccc1C(F)(F)F)C(=O)C1CCN(S(=O)(=O)c2ccc3[nH]ncc3c2)CC1
1200	CCN(Cc1ccccc1C(F)(F)F)C(=O)C1CCN(S(=O)(=O)c2ccc3cn[nH]c3c2)CC1
710	CCN(Cc1ccccc1C(F)(F)F)C(=O)C1(F)CCN(S(=O)(=O)c2ccc3[nH]ncc3c2)CC1

same assay, conditions: CHO-K1 rat M5, Fluo-4 calcium flux, at 30 µM (top of the series)

% ACh max response	Compound
inactive	CCN(Cc1ccccc1)C(=O)C1CCN(S(=O)(=O)c2ccc(OC)cc2)CC1
inactive	CCN(Cc1ccccc1)C(=O)C1CCN(S(=O)(=O)c2ccc3c(c2)OCCO3)CC1

Reference: PubChem BioAssay AID743111 (Vanderbilt Specialized Chemistry Center, 2013)
